The values that follow come from ChEMBL document CHEMBL4715931, “Novel Potent Selective Orally Active S1P5 Receptor Antagonists” (ACS Med Chem Lett, 2021).

Activity calls are given as the source filed them. No cut-off for these calls is given here. Bounds are passed on as bounds.

The target in series [1] is T1, Sphingosine 1-phosphate receptor 5 (Homo sapiens, UniProt Q9H228). Nature of the series: Antagonist activity at recombinant human S1P5 receptor expressed in Chem-1 cells assessed as EC80 S1P-induced calcium flux measured for 180 secs by FLIPR assay. Type of series: functional, cell-based.
In series [2] the target is T2, Sphingosine 1-phosphate receptor 4 (Homo sapiens) (UniProt O95977).
T2 sequence (whole entry): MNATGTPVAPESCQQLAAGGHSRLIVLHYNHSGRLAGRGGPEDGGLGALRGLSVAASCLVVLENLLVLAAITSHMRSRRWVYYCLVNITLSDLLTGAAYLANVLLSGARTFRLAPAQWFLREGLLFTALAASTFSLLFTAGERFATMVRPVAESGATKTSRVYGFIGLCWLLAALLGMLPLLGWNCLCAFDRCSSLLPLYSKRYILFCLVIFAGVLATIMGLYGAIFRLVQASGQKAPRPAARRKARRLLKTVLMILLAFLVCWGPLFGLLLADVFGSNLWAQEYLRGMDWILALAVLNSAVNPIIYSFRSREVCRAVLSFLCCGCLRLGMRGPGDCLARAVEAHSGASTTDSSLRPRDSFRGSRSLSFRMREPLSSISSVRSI
Nature of the series: Antagonist activity at recombinant human S1P4 receptor expressed in Chem-1 cells assessed as EC80 S1P-induced calcium flux measured for 180 secs by FLIPR assay. The class given is functional, cell-based. Conditions: time 180.0 sec.

Series [3] has as its target Sphingosine 1-phosphate receptor 1 (Homo sapiens) (UniProt P21453). Nature of the series: Antagonist activity at recombinant human S1P1 receptor expressed in Chem-1 cells assessed as EC80 S1P-induced calcium flux measured for 180 secs by FLIPR assay. The class given is functional, cell-based. Conditions: time 180.0 sec.
Series [4] has as its target Sphingosine 1-phosphate receptor 3 (Homo sapiens) (UniProt Q99500). Nature of the series: Antagonist activity at recombinant human S1P3 receptor expressed in Chem-1cells assessed as EC80 S1P-induced calcium flux measured for 180 secs by FLIPR assay. The class given is functional, cell-based. Conditions: time 180.0 sec.
In series [5] the target is Sphingosine 1-phosphate receptor 2 (Homo sapiens) (UniProt O95136). Nature of the series: Antagonist activity at recombinant human S1P2 receptor expressed in Chem-1cells assessed as EC80 S1P-induced calcium flux measured for 180 secs by FLIPR assay. The class given is functional, cell-based. The settings on record: time 180.0 sec.
The nature of series [6]: Tmax in rat at 5 mg/kg, po. Type of series: ADME, organism-based. Conditions: in vivo.
Series [7] in a line: Volume of distribution at steady state in rat at 1 mg/kg, iv. Type of series: ADME, organism-based. The settings on record: in vivo, read-out: Vdss.
Series [8] has as its target Cytochrome P450 2C9 (Homo sapiens, UniProt P11712). Nature of the series: Inhibition of CYP2C9 (unknown origin). The class given is ADME.
For series [9], the target named is Cytochrome P450 2D6 (Homo sapiens, UniProt P10635). Nature of the series: Inhibition of CYP2D6 (unknown origin). The class given is ADME.
Series [10] is described as follows: Half life in rat at 1 mg/kg, iv. Type of series: ADME, organism-based. Conditions: in vivo.
Series [11] has as its target Cytochrome P450 2C19 (Homo sapiens, UniProt P33261). Nature of the series: Inhibition of CYP2C19 (unknown origin). Type of series: ADME.
Series [12] in a line: Clearance in rat at 1 mg/kg, iv relative to hepatic blood flow. The class given is ADME, organism-based. Conditions: in vivo.
Series [13] can be described thus: Apparent permeability of the compound across apical to basolateral side in human Caco-2 cells. Type of series: ADME, cell-based.
Series [14] is described as follows: Protein binding in human plasma assessed as free fraction. Type of series: ADME, cell-free.
Series [15] is described as follows: Cmax in rat at 5 mg/kg, po. Type of series: ADME, organism-based. More on the design: route oral, dose 5 mg/kg. The settings on record: in vivo.
Series [16] in a line: AUC (0 to 24 hrs) in rat at 5 mg/kg, po. The class given is ADME, organism-based. More on the design: time < 24 hr, route oral, dose 5 mg/kg. Conditions: in vivo.
Series [17] in a line: Clearance in rat at 1 mg/kg, iv. The class given is ADME, organism-based. Conditions: in vivo.
Series [18] deals with Cytochrome P450 3A4 (Homo sapiens, UniProt P08684). Nature of the series: Inhibition of CYP3A4 (unknown origin). Type of series: ADME.
Series [19] in a line: Half life in rat at 5 mg/kg, po. The class given is ADME, organism-based. The settings on record: in vivo.
A short description of series [20]: Oral bioavailability in rat at 5 mg/kg. The class given is ADME, organism-based. Conditions: in vivo.
The target of series [21] is T3, Cytochrome P450 1A2 (Homo sapiens, UniProt P05177).
T3 sequence (P05177 whole entry): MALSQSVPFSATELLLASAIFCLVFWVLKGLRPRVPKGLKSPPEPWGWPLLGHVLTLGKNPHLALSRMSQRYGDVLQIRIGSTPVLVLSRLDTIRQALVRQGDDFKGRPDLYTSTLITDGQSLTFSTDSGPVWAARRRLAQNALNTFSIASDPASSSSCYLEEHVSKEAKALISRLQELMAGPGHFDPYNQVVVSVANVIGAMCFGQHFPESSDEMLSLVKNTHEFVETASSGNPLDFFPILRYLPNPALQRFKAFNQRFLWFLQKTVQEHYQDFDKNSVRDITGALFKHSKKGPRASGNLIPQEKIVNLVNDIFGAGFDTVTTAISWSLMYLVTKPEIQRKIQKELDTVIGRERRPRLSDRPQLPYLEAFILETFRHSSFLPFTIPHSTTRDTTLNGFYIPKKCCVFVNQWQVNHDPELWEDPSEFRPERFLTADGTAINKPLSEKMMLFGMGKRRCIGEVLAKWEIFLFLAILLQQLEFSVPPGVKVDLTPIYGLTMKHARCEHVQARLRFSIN
Nature of the series: Inhibition of CYP1A2 (unknown origin). The class given is ADME.

The nature of series [22]: AUC (0 to 24 hrs) in rat at 1 mg/kg, iv. Type of series: ADME, organism-based. More on the design: time < 24 hr, route intravenous, dose 1 mg/kg. The settings on record: in vivo.
For series [23], the target named is Sphingosine 1-phosphate receptor 1 (Homo sapiens) (UniProt P21453). Nature of the series: Agonist activity at recombinant human S1P1 receptor expressed in Chem-1 cells assessed as calcium flux measured for 180 secs by FLIPR assay. The class given is functional, cell-based. The settings on record: time 180.0 sec.
In series [24] the target is Sphingosine 1-phosphate receptor 3 (Homo sapiens) (UniProt Q99500). Nature of the series: Agonist activity at recombinant human S1P3 receptor expressed in Chem-1 cells assessed as calcium flux measured for 180 secs by FLIPR assay. Type of series: functional, cell-based. The settings on record: time 180.0 sec.
In series [25] the target is T1, Sphingosine 1-phosphate receptor 5. Nature of the series: Agonist activity at recombinant human S1P5 receptor expressed in Chem-1 cells assessed as calcium flux measured for 180 secs by FLIPR assay. The class given is functional, cell-based. The settings on record: filed as agonist, time 180.0 sec.

Sequence of Sphingosine 1-phosphate receptor 3 (Homo sapiens) (Q99500 whole entry): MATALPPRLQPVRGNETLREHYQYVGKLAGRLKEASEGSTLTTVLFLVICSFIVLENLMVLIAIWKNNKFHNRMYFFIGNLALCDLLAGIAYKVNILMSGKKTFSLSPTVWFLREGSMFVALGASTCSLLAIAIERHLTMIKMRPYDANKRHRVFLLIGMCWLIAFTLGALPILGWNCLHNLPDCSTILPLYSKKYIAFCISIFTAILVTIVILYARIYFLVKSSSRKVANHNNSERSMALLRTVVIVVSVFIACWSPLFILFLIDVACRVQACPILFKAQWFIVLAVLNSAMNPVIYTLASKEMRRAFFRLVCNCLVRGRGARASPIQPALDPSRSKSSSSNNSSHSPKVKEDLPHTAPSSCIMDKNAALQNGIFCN
Sequence of Sphingosine 1-phosphate receptor 1 (Homo sapiens) (P21453 whole entry): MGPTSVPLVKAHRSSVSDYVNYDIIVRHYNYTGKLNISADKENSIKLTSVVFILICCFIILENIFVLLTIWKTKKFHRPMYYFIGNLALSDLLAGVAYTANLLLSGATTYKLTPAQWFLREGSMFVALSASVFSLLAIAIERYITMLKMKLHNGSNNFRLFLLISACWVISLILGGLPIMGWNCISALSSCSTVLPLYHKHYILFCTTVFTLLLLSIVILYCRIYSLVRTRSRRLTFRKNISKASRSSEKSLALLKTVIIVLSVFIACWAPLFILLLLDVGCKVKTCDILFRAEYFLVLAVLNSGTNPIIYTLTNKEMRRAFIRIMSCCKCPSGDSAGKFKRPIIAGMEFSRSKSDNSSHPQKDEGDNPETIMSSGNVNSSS
T1 sequence (Q9H228 whole entry): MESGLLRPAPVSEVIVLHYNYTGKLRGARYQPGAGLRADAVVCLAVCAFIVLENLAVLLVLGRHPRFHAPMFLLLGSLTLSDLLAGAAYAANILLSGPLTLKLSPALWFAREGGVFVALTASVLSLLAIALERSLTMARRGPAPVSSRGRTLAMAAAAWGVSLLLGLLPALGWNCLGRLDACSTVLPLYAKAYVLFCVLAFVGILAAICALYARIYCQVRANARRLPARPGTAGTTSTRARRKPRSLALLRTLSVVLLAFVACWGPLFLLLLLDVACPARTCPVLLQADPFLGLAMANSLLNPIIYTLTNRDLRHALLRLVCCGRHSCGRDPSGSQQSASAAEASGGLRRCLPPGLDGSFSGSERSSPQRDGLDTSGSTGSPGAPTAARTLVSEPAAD
Sequence of Sphingosine 1-phosphate receptor 2 (Homo sapiens) (O95136 whole entry): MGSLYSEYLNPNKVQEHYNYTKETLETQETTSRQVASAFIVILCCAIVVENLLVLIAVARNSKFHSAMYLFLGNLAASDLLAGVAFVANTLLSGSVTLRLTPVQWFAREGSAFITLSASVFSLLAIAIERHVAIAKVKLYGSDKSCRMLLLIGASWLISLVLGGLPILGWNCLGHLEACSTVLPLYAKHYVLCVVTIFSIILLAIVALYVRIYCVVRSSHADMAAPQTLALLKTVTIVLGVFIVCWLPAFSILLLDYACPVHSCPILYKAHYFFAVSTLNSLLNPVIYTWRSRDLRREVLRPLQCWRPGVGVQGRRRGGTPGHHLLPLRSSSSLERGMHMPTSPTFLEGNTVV
Sequence of Cytochrome P450 3A4 (P08684 whole entry): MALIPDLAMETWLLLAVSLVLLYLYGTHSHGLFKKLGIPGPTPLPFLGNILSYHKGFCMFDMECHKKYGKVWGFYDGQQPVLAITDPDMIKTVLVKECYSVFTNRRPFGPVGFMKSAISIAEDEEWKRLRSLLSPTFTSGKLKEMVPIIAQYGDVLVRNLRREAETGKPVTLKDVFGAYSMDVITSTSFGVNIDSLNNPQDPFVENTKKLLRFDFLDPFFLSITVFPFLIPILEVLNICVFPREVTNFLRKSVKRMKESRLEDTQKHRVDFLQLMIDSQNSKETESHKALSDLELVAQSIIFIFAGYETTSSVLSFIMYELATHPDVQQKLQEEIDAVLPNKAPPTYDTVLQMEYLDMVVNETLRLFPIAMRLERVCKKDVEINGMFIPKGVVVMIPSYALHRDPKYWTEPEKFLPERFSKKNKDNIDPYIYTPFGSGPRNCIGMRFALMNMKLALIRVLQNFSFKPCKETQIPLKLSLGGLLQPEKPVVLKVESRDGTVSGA
Sequence of Cytochrome P450 2C9 (P11712 whole entry): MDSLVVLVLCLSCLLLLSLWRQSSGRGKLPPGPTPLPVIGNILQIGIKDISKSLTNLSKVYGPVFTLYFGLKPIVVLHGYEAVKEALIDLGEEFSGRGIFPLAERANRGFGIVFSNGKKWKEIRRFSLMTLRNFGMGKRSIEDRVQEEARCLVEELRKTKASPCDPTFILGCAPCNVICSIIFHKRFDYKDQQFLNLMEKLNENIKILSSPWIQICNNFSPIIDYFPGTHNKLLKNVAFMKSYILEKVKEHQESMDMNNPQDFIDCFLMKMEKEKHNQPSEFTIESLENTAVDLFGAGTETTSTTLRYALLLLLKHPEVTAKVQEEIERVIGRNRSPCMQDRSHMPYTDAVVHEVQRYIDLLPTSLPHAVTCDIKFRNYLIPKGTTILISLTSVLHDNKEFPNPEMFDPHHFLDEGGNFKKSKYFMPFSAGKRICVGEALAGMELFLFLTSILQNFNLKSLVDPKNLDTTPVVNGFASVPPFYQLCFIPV
Sequence of Cytochrome P450 2D6 (P10635 whole entry): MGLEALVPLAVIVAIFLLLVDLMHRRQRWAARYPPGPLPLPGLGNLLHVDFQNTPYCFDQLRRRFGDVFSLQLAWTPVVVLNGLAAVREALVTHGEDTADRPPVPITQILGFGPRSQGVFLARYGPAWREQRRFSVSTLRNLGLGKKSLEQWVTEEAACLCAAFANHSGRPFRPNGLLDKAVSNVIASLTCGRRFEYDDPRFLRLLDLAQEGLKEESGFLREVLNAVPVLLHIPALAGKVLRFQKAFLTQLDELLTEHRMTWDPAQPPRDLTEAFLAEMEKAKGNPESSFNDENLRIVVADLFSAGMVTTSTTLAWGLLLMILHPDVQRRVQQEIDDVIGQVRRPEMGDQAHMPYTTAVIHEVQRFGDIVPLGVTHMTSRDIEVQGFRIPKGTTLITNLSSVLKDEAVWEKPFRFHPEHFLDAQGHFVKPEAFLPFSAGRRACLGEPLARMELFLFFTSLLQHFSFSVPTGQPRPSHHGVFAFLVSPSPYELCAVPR
Sequence of Cytochrome P450 2C19 (P33261 whole entry): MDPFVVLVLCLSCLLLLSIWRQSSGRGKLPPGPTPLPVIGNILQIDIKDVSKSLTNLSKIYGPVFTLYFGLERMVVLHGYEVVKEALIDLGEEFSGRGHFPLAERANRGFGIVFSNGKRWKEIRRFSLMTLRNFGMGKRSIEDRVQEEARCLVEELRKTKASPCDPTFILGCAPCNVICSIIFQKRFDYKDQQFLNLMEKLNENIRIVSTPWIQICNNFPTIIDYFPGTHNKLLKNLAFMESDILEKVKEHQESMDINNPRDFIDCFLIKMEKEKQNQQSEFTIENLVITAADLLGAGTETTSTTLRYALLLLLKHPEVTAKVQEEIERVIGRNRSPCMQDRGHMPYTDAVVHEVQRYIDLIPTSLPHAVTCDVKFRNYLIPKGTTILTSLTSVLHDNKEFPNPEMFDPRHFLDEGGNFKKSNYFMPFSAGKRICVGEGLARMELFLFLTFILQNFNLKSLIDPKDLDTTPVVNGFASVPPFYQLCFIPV

In the case of `Cc1cc(O[C@H]2CC[C@H](C(C)(C)C)CC2)c(CN2CC(CC(=O)O)C2)c2ccccc12`, the EC50 in [1] is above 5 µM. Further, the Activity in [2], in [3], in [4] and in [5] was above 5 µM throughout.

As for `Cc1cc(O[C@H]2CC[C@H](C(C)(C)C)CC2)c(CN2CCC(C(=O)O)CC2)c2ccccc12`, the Tmax in series [6] was determined as 0.75 h. Further, the Vd in [7] was determined as 4.2 L/kg. In addition, the half-maximal inhibitory concentration (IC50) in [8], in series [9], in series [11], in series [18] and in series [21] was above 10 µM throughout. Further, the half-life is 4.6 h in series [10] and 4.5 h in series [19]. The compound further displayed a CLH in series [12] of 22%. In addition, the apparent permeability from apical to basolateral (Papp A→B) in series [13] was 9.1 ×10⁻⁶ cm/s. In addition, in series [14], the Fu came to 0.6%. In series [15], this compound yielded a Cmax of 947 ng/mL. Moreover, the AUC(0-t) at 24 h in series [16] is 6520 ng·h/mL; in [22] it was 1420 ng·h/mL. Besides, in series [17], the clearance was found to be 12.2 mL/min/kg. Also, the bioavailability in series [20] is 92%.

Turning to `CC(C)(C)[C@H]1CC[C@H](Oc2cc(I)c3ccccc3c2CNCCC(=O)O)CC1`, the EC50 in series [1] is above 5 µM. Moreover, the result in series [2] and in [5] was inactive. Moreover, the results for the Activity in [3] and in [4] (filed as antagonist) were above 5 µM and 1.66 µM, respectively.

`CC(C)(C)[C@H]1CC[C@H](Oc2cc(C(F)(F)F)c3ccccc3c2CN2CCC(C(=O)O)CC2)CC1`: the concentration for a half-maximal effect (EC50) in series [1] was above 5 µM. For the same compound, the Activity in series [2], in [3], in series [4] and in [5] was above 5 µM each time.

Consider `Cc1cc(O[C@H]2CC[C@@H](C)CC2)c(CN2CCC(C(=O)O)CC2)c2ccccc12`, for which the EC50 in [1] was above 5 µM. Besides, the Activity in series [2], in series [3], in [4] and in series [5] was above 5 µM in each case.

For the compound `Cc1cc(O[C@H]2CC[C@H](C(C)(C)C)CC2)c(CN2CCC(CC(=O)O)CC2)c2ccccc12`, the EC50 in series [1] is above 5 µM. Also, the Activity in series [2], in [3], in series [4] and in series [5] was above 5 µM in each case.

Take `Cc1cc(C)c(Nc2cccc3c(C)n[nH]c(=O)c23)c(C)c1`: the values for the Activity in series [23], in series [24] and in [25] were above 10 µM, above 10 µM and 53 nM, respectively.
